Patent publication US10934527B2, “Generation of lineage-restricted progenitor cells from differentiated cells” (The Regents of the University of California, priority 2011, dated 2021)
“Also recorded” adds a separate entry of the source.

Legend:
YFP+ myotubes = test: De-differentiation assay of lineage-marked YFP+ primary myotubes; format: cell-based, mice
Procedure: WT myoblasts or Tet-Oct4 (3×10^5) myoblasts upon 4-6 hour infection with 300 MOI of Ad-Cre virus were washed with growth medium twice to get rid of any residual virus and incubated for another 24 hours in growth medium at 37° C. in 5% CO2 incubator. These myoblasts were then lifted off from the plates by addition of 1×PBS, counted (3×10^4 cells/well) and co-cultured with 7×10^4 Lox-YFP myoblasts (obtained from B6.129X1-Gt(ROSA)26Sor^tm1(EYFP)Cos/J mice strain) per well in differentiation inducing medium DMEM (Cellgro)+2% horse serum+1% Penicillin/Streptomycin on 12 well (BD Falcon) on ECM (1:500) coated 12 well plates. […] The inhibitors were then withdrawn and cells were switched to growth medium containing bFGF (9 ng/ml). The treated cells were fed fresh growth medium and bFGF everyday over a period of time and the morphology of YFP expressing myotubes was routinely visualized by epifluorescence microscope using YFP filter and photographed using 10× and 20× objectives. For live Hoechst staining, 4 μM of Hoechst was added everyday to YFP labeled myotube cultures, incubated for 10 minutes at 37° C. in 5% CO2 incubator, washed off to remove unlabeled Hoechst and photographed.
The labeled YFP^+ myotubes per well in 4 day old Cre-Lox myotube cultures were determined to be ˜2600. After inhibitor treatment, ˜350 YFP^+ mononucleated cells were found in culture. […] Another method was based on the determination of Lox YFP myonuclei in labeled myotubes. […] Therefore, reprogramming efficiency calculated was the percent of YFP^+ mononucleated cells out of an estimated total number of Lox YFP myonuclei in YFP^+ myotubes and was determined ˜5.04% [(350/6940)×100] (see FIG. 11D).

primary myotubes = test: Apoptosis / cell death in treated primary myotubes; format: cell-based, mice
[1] = 96 hour old YFP+ myotubes treated daily for 2 days in DM (10 μM), then switched to GM

COc1cccc2c1C(=O)c1c(O)c3c(c(O)c1C2=O)C[C@@](O)(C(=O)CO)C[C@@H]3O[C@H]1C[C@H](N)[C@H](O)[C@H](C)O1 [doxorubicin]
appearance of YFP+ mononucleated cells from Cre-Lox myotubes (YFP+ myotubes; 0.2 uM for 48 hours, alone or in combination with the apoptosis inhibitor, then growth media 72-96 hours): no YFP^+ mononucleated cells were observed

O.O.O.OO.OO.[K+].[OH-].[V].c1cnc2c(c1)ccc1cccnc12 [BpV, potassium bisperoxo(1,10-phenanthroline)oxovanadate]
de-differentiation frequency / reprogramming efficiency, method 1: percent of YFP+ mononucleated cells out of the total number of labeled YFP+ myotubes (YFP+ myotubes; [1]): ~1.18% | reprogramming efficiency, method 2: percent of YFP+ mononucleated cells out of estimated total number of Lox YFP myonuclei in YFP+ myotubes (YFP+ myotubes; [1]): ~0.4% | cell death / apoptosis of myotubes (primary myotubes; myotubes treated with BpV alone): cell death occurred; also recorded: did show apoptosis

N-(2-Quinolyl)valyl-aspartyl-(2,6-difluorophenoxy)methyl ketone [Q-VD]
appearance of YFP+ mononucleated cells from YFP+ myotubes (YFP+ myotubes; treated in DM, then switched to GM): no YFP^+ mononucleated cells were observed | apoptosis by doxorubicin in Cre-Lox myotube cultures (primary myotubes; with 0.2 uM doxorubicin for 48 hours): reduced apoptosis
